{
  "source": "patent US20020151459A1",
  "about": "“Methods for identifying compounds useful for inhibiting farnesyl diphosphate synthase” (Merck & Co., Inc., priority 2000, published 2002)",
  "key": {"[1]": {"biological_target": "T1, rat liver squalene synthase (Rattus norvegicus, UniProt Q02769)", "T1 construct": "host or cells: rat liver", "T1 sequence (Q02769 1-416)": "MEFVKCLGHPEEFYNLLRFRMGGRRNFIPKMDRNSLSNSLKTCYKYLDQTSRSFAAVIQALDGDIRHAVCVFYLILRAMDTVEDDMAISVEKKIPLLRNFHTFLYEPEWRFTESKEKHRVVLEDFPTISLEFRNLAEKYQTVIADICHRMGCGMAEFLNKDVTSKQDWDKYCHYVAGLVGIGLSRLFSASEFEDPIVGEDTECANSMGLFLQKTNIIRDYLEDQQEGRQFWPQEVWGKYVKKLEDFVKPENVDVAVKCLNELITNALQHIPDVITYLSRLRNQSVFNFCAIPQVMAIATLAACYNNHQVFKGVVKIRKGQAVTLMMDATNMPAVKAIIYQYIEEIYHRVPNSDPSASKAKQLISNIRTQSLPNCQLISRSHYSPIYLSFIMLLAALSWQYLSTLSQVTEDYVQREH", "conditions": "cited from earlier work"}, "[2]": {"biological_target": "T2, human recombinant farnesyl diphosphate synthase (Homo sapiens, UniProt P14324)", "T2 sequence (P14324 67-419 limits assumed)": "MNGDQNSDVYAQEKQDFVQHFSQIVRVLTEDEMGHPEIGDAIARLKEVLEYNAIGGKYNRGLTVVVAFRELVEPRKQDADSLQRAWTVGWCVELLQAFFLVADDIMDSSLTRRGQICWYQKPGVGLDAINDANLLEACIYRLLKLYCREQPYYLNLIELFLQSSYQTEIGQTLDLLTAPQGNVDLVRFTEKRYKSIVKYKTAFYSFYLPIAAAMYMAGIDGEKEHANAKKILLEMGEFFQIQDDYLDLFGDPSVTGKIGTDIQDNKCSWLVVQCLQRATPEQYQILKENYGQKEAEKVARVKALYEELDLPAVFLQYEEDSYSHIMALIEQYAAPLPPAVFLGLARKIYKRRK"}, "[3]": {"biological_target": "Farnesyl protein transferase (FTase) (Homo sapiens, UniProt P49354+P49356)"}, "[4]": {"biological_target": "geranylgeranyl protein transferase I (GGTase I) (Homo sapiens, UniProt P49354+P53609)"}, "[5]": {"biological_target": "geranylgeranyl protein transferase II (GGTase II) (Homo sapiens, UniProt P53611+Q92696)", "sequence (Q92696 whole entry)": "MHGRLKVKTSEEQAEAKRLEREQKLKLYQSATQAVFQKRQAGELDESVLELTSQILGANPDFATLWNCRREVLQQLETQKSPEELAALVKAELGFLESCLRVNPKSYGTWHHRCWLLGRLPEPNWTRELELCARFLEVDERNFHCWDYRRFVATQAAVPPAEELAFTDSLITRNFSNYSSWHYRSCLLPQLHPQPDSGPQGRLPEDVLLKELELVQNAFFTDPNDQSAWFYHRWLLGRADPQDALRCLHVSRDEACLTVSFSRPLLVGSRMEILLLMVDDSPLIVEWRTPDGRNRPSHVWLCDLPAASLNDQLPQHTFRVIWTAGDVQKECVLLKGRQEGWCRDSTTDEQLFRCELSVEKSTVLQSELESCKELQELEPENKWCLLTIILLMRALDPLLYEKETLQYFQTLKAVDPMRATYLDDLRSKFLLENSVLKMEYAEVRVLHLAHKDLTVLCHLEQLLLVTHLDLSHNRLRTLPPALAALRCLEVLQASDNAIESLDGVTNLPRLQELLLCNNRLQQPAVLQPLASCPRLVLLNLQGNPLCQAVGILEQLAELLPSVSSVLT", "sequence (P53611 whole entry)": "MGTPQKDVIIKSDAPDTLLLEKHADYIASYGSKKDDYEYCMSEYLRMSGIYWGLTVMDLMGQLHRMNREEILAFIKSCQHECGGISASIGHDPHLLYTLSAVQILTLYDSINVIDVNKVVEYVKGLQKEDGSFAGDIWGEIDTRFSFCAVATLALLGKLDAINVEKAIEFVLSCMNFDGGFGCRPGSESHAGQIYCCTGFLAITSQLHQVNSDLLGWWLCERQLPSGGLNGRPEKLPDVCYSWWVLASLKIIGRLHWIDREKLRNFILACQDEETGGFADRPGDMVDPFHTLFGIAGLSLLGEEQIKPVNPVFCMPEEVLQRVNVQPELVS"}, "[6]": {"tested_on": "protein prenylation in osteoclasts", "conditions": "at 60 μM"}, "[7]": {"tested_on": "mevalonate-derived non-saponifiable lipids in osteoclasts", "conditions": "alendronate 0-60 μM"}, "[8]": {"tested_on": "protein prenylation in osteoclasts", "assay": "cells", "conditions": "Mus musculus, Osteoclast, read-out: IC50, labeling of prenylated proteins, osteoclasts, 15 μM lovastatin, 2 hours pretreatment, 3 hours of labeling"}, "[9]": {"tested_on": "mevalonate-derived non-saponifiable lipids in osteoclasts", "assay": "cells", "conditions": "Mus musculus, Osteoclast, read-out: IC50, incorporation of label from MVL into non-saponifiable lipids, osteoclasts, 2 hours pretreatment, 3 hours of labeling"}, "[10]": {"tested_on": "osteoclasts in culture", "conditions": "cited from earlier work"}, "[11]": {"tested_on": "sterol synthesis", "conditions": "read-out: IC50, block of sterol synthesis; incorporation of 14C-MVA into sterol, rat liver cell-free system; cited from earlier work"}, "[12]": {"biological_target": "T2, human recombinant farnesyl diphosphate synthase", "assay": "biochemical"}},
  "note": "“Also recorded” adds a separate entry of the source.",
  "data": [
    {"smiles": "O=P(O)(O)C(O)(CCN1CCCC1)P(=O)(O)O", "note": "[EB 1053, 1-hydroxy-3-(1-pyrrolidinyl)-propylidene-1,1-bisphosphonic acid]", "values": [
      {"measurement": "inhibition of squalene synthase (in words)", "setting": "[1]", "result": "potent, nanomolar inhibitors"}
    ]},
    {"smiles": "O=P(O)(O)C(NC1CCCCCC1)P(=O)(O)O", "note": "[YM 175, Cycloheptylaminomethylene-1,1-bisphosphonic acid]", "values": [
      {"measurement": "inhibition of squalene synthase (in words)", "setting": "[1]", "result": "potent, nanomolar inhibitors"}
    ]},
    {"smiles": "NCCCC(O)(P(=O)(O)O)P(=O)(O)O", "note": "[alendronate, 4-amino-1-hydroxybutylidene-1,1-bisphosphonic acid monosodium trihydrate]", "values": [
      {"measurement": "inhibition of FPP synthase (in words)", "setting": "[2]", "result": "effectively inhibit"},
      {"measurement": "inhibition of FTase (in words)", "setting": "[3]", "result": "not inhibited"},
      {"measurement": "inhibition of GGTase I (in words)", "setting": "[4]", "result": "not inhibited"},
      {"measurement": "inhibition of GGTase II (in words)", "setting": "[5]", "result": "not inhibited"},
      {"measurement": "labeling of prenylated proteins (in words)", "setting": "[6]", "result": "essentially disappears"},
      {"measurement": "lowering of incorporation of label from MVL into non-saponifiable lipids", "setting": "[7]", "result": "up to 80%"},
      {"measurement": "inhibition of squalene synthase (in words)", "setting": "[1]", "result": "comparatively little effect"},
      {"measurement": "IC50", "setting": "[8]", "result": "~15", "unit": "µM"},
      {"measurement": "IC50", "setting": "[9]", "result": "~15", "unit": "µM"},
      {"measurement": "osteoclast formation and bone resorption (in words)", "setting": "[10]", "result": "inhibited"},
      {"measurement": "IC50", "setting": "[11]", "result": 0.168, "unit": "µM"}
    ]},
    {"smiles": "O=P(O)(O)C(Cl)(Cl)P(=O)(O)O", "note": "[clodronate, 1,1-dichloromethylene-1,1-diphosphonic acid]", "values": [
      {"measurement": "inhibition of FPP synthase (in words)", "setting": "[2]", "result": "no inhibition observed; also recorded: little or no effect"}
    ]},
    {"smiles": "CC(O)(P(=O)(O)O)P(=O)(O)O", "note": "[etidronate, 1-hydroxyethane-1,1-diphosphonic acid]", "values": [
      {"measurement": "inhibition of FPP synthase (in words)", "setting": "[2]", "result": "little or no effect"},
      {"measurement": "IC50", "setting": "[12]", "result": 80, "unit": "µM"}
    ]},
    {"smiles": "CC[C@H](C)C(=O)O[C@H]1C[C@@H](C)C=C2C=C[C@H](C)[C@H](CC[C@@H]3C[C@@H](O)CC(=O)O3)[C@H]21", "note": "[lovastatin]", "values": [
      {"measurement": "osteoclast formation and bone resorption (in words)", "setting": "[10]", "result": "inhibited"}
    ]},
    {"smiles": "NCCC(O)(P(=O)(O)O)P(=O)(O)O", "note": "[pamidronate, 3-amino-1-hydroxypropylidene-1,1-bisphosphonic acid]", "values": [
      {"measurement": "inhibition of FPP synthase (in words)", "setting": "[2]", "result": "effectively inhibit"},
      {"measurement": "inhibition of squalene synthase (in words)", "setting": "[1]", "result": "comparatively little effect"},
      {"measurement": "IC50", "setting": "[11]", "result": 0.42, "unit": "µM"}
    ]}
  ]
}
